{"source": "ChEMBL document CHEMBL1126999", "about": "“Anticonvulsant sugar sulfamates. Potent cyclic sulfate and cyclic sulfite analogues of topiramate” (Bioorg Med Chem Lett, 1993)", "key": {"Mus musculus [1]": {"tested_on": "Mus musculus", "assay": "Tested for anticonvulsant activity against mice at 4 hr at a peroral dose of 10 mg/Kg by maximal electroshock seizure (MES) test", "type": "functional"}, "Mus musculus [2]": {"tested_on": "Mus musculus", "assay": "Tested for anticonvulsant activity against mice at 4 hr at a peroral dose of 75 mg/Kg by maximal electroshock seizure (MES) test", "type": "functional"}, "Mus musculus [3]": {"tested_on": "Mus musculus", "assay": "Tested for anticonvulsant activity against mice at 4 hr at a peroral dose of 200 mg/Kg by maximal electroshock seizure (MES) test", "type": "functional"}, "Mus musculus [4]": {"tested_on": "Mus musculus", "assay": "Tested for anticonvulsant activity against mice at 4 hr at a peroral dose of 35 mg/Kg by maximal electroshock seizure (MES) test", "type": "functional"}, "Mus musculus [5]": {"tested_on": "Mus musculus", "assay": "Tested for effective dose required to produce anticonvulsant activity against mice at 4 hr (po)", "type": "functional"}, "Mus musculus [6]": {"tested_on": "Mus musculus", "assay": "Tested for anticonvulsant activity against mice at 4 hr at a peroral dose of 1 mg/Kg by maximal electroshock seizure (MES) test", "type": "functional"}, "Mus musculus [7]": {"tested_on": "Mus musculus", "assay": "Tested for anticonvulsant activity against mice at 4 hr at a peroral dose of 300 mg/Kg by maximal electroshock seizure (MES) test", "type": "functional"}, "[8]": {"assay": "Therapeutic index relative to neurotoxicity ([…]) was determined in the rotarod test."}, "Mus musculus [9]": {"tested_on": "Mus musculus", "assay": "Tested for effective dose required to produce anticonvulsant activity against mice at 16 hr (po)", "type": "functional"}, "Mus musculus [10]": {"tested_on": "Mus musculus", "assay": "Tested for anticonvulsant activity against mice at 4 hr at a peroral dose of 3 mg/Kg by maximal electroshock seizure (MES) test", "type": "functional"}, "Mus musculus [11]": {"tested_on": "Mus musculus", "assay": "Tested for anticonvulsant activity against mice at 4 hr at a peroral dose of 60 mg/Kg by maximal electroshock seizure (MES) test", "type": "functional"}, "[12]": {"settings": "Mus musculus, po, 4 h, read-out: ED50"}}}
{"smiles": "CCN(CC)S(=O)(=O)OC[C@@]12OC[C@H]3OS(=O)(=O)O[C@H]3[C@@H]1OC(C)(C)O2", "values": [{"measurement": "Block", "setting": "Mus musculus [1]", "value": 10, "unit": "%"}, {"measurement": "Block", "setting": "Mus musculus [2]", "value": 100, "unit": "%"}]}
{"smiles": "CNS(=O)(=O)OC[C@@]12OC[C@H]3OC(C)(C)O[C@H]3[C@@H]1OC(C)(C)O2", "values": [{"measurement": "Block", "setting": "Mus musculus [2]", "value": 60, "unit": "%"}, {"measurement": "Block", "setting": "Mus musculus [3]", "value": 100, "unit": "%"}]}
{"smiles": "CCCCNS(=O)(=O)OC[C@@]12OC[C@H]3OS(=O)(=O)O[C@H]3[C@@H]1OC(C)(C)O2", "values": [{"measurement": "Block", "setting": "Mus musculus [1]", "value": 30, "unit": "%"}, {"measurement": "Block", "setting": "Mus musculus [4]", "value": 100, "unit": "%"}]}
{"smiles": "CN(C)S(=O)(=O)OC[C@@]12OC[C@H]3OC(C)(C)O[C@H]3[C@@H]1OC(C)(C)O2", "values": [{"measurement": "Block", "setting": "Mus musculus [2]", "value": 0, "unit": "%"}, {"measurement": "Block", "setting": "Mus musculus [3]", "value": 80, "unit": "%"}]}
{"smiles": "CNS(=O)(=O)OC[C@@]12OC[C@H]3OS(=O)(=O)O[C@H]3[C@@H]1OC(C)(C)O2", "values": [{"measurement": "ED50", "setting": "Mus musculus [5]; [12]", "value": 7.4, "unit": "mg/kg"}, {"measurement": "Block", "setting": "Mus musculus [1]", "value": 100, "unit": "%"}]}
{"smiles": "CCCCCCCCNS(=O)(=O)OC[C@@]12OC[C@H]3OS(=O)(=O)O[C@H]3[C@@H]1OC(C)(C)O2", "values": [{"measurement": "Block", "setting": "Mus musculus [1]", "value": 0, "unit": "%"}, {"measurement": "Block", "setting": "Mus musculus [2]", "value": 100, "unit": "%"}]}
{"smiles": "CC1(C)O[C@H]2[C@@H]3OS(=O)(=O)O[C@@H]3CO[C@@]2(COS(=O)(=O)NC2CCC2)O1", "values": [{"measurement": "Block", "setting": "Mus musculus [1]", "value": 90, "unit": "%"}, {"measurement": "Block", "setting": "Mus musculus [6]", "value": 0, "unit": "%"}]}
{"smiles": "CC1(C)O[C@H]2[C@@H]3OS(=O)(=O)O[C@@H]3CO[C@@]2(COS(=O)(=O)Nc2ccccc2)O1", "values": [{"measurement": "Block", "setting": "Mus musculus [2]", "value": 0, "unit": "%"}, {"measurement": "Block", "setting": "Mus musculus [7]", "value": 0, "unit": "%"}]}
{"smiles": "CN(C)S(=O)(=O)OC[C@@]12OC[C@H]3OS(=O)(=O)O[C@H]3[C@@H]1OC(C)(C)O2", "values": [{"measurement": "ED50", "setting": "Mus musculus [5]; [12]", "value": 6.9, "unit": "mg/kg"}, {"measurement": "Block", "setting": "Mus musculus [1]", "value": 70, "unit": "%"}, {"measurement": "Block", "setting": "Mus musculus [4]", "value": 100, "unit": "%"}]}
{"smiles": "CC1(C)O[C@H]2[C@@H]3OS(=O)O[C@@H]3CO[C@@]2(COS(N)(=O)=O)O1", "note": "(stereo in doubt; 3b)", "values": [{"measurement": "ED50", "setting": "Mus musculus [5]", "value": 6.5, "unit": "mg/kg"}]}
{"smiles": "CC1(C)O[C@H]2[C@@H]3OS(=O)(=O)O[C@@H]3CO[C@@]2(COS(N)(=O)=O)O1", "values": [{"measurement": "selectivity ratio", "setting": "[8]", "value": "> 150"}, {"measurement": "ED50", "setting": "Mus musculus [9]", "value": 41.5, "unit": "mg/kg"}, {"measurement": "ED50", "setting": "Mus musculus [5]; [12]", "value": 6.3, "unit": "mg/kg"}, {"measurement": "Block", "setting": "Mus musculus [1]", "value": 80, "unit": "%"}]}
{"smiles": "CC1(C)O[C@H]2[C@@H]3OS(=O)(=O)O[C@@H]3CO[C@@]2(COS(=O)(=O)NCc2ccccc2)O1", "values": [{"measurement": "Block", "setting": "Mus musculus [1]", "value": 0, "unit": "%"}, {"measurement": "Block", "setting": "Mus musculus [2]", "value": 100, "unit": "%"}]}
{"smiles": "CC1(C)O[C@H]2[C@@H]3OS(=O)(=O)O[C@@H]3CO[C@@]2(COS(=O)(=O)NC2CCCCCCC2)O1", "values": [{"measurement": "Block", "setting": "Mus musculus [1]", "value": 0, "unit": "%"}, {"measurement": "Block", "setting": "Mus musculus [2]", "value": 30, "unit": "%"}]}
{"smiles": "C=CCNS(=O)(=O)OC[C@@]12OC[C@H]3OS(=O)(=O)O[C@H]3[C@@H]1OC(C)(C)O2", "values": [{"measurement": "Block", "setting": "Mus musculus [1]", "value": 70, "unit": "%"}, {"measurement": "Block", "setting": "Mus musculus [6]", "value": 0, "unit": "%"}]}
{"smiles": "CC1(C)O[C@H]2[C@@H]3OS(=O)(=O)O[C@@H]3CO[C@@]2(COS(=O)(=O)NC2CC2)O1", "values": [{"measurement": "ED50", "setting": "Mus musculus [5]; [12]", "value": 7.3, "unit": "mg/kg"}, {"measurement": "Block", "setting": "Mus musculus [1]", "value": 90, "unit": "%"}, {"measurement": "Block", "setting": "Mus musculus [6]", "value": 0, "unit": "%"}]}
{"smiles": "CCNS(=O)(=O)OC[C@@]12OC[C@H]3OS(=O)(=O)O[C@H]3[C@@H]1OC(C)(C)O2", "values": [{"measurement": "Block", "setting": "Mus musculus [10]", "value": 0, "unit": "%"}, {"measurement": "ED50", "setting": "Mus musculus [5]; [12]", "value": 14.4, "unit": "mg/kg"}, {"measurement": "Block", "setting": "Mus musculus [4]", "value": 100, "unit": "%"}]}
{"smiles": "CC1(C)O[C@@H]2[C@@H](CO[C@@]3(COS(N)(=O)=O)OC(C)(C)O[C@@H]23)O1", "note": "[TOPIRAMATE]", "values": [{"measurement": "ED50", "setting": "Mus musculus [9]", "value": 720, "unit": "mg/kg"}, {"measurement": "ED50", "setting": "Mus musculus [5]", "value": 53.5, "unit": "mg/kg"}, {"measurement": "Block", "setting": "Mus musculus [11]", "value": 60, "unit": "%"}]}
{"smiles": "O=C1NC(=O)C(c2ccccc2)(c2ccccc2)N1", "note": "[PHENYTOIN]", "values": [{"measurement": "ED50", "setting": "Mus musculus [5]; [12]", "value": 6.4, "unit": "mg/kg"}]}
{"smiles": "CC1(C)O[C@H]2[C@@H]3OS(=O)(=O)O[C@@H]3CO[C@@]2(COS(=O)(=O)NCC(F)(F)F)O1", "values": [{"measurement": "Block", "setting": "Mus musculus [1]", "value": 40, "unit": "%"}, {"measurement": "Block", "setting": "Mus musculus [2]", "value": 90, "unit": "%"}]}
{"smiles": "CC1(C)O[C@H]2[C@@H]3OS(=O)O[C@@H]3CO[C@@]2(COS(N)(=O)=O)O1", "note": "(stereo in doubt; 3a)", "values": [{"measurement": "ED50", "setting": "Mus musculus [5]; [12]", "value": 6.3, "unit": "mg/kg"}, {"measurement": "Block", "setting": "Mus musculus [1]", "value": 70, "unit": "%"}]}
